# Where two headings read alike, the source gives them in different places.
# How the values were obtained:
# [1] = test system: Streptococcus pyogenes Cook (MS-1); test: MIC by agar dilution method; assay type: cell-based
# Source text: (§1) Also shown in the same table are the MIC's obtained for josamycin (JM) and erythromycin (EM) as controls.
# [2] = test system: Mycoplasma pneumoniae; test: MIC by agar dilution method; assay type: cell-based
# Source text: as §1
# [3] = test system: Enterobacter cloacae 963 (MS-1); test: MIC by agar dilution method; assay type: cell-based
# Source text: as §1
# [4] = test system: Salmonella typhi 901 (MS-1); test: MIC by agar dilution method; assay type: cell-based; settings: Salmonella enterica
# Source text: as §1
# [5] = test system: Pseudomonas aeruginosa IFO 3445 (MS-1); test: MIC by agar dilution method; assay type: cell-based; settings: IFO3445
# Source text: as §1
# [6] = test system: Salmonella paratyphi 1015 (MS-1); test: MIC by agar dilution method; assay type: cell-based; settings: Salmonella enterica
# Source text: as §1
# [7] = test system: Proteus rettgeri IFO 3850 (MS-1); test: MIC by agar dilution method; assay type: cell-based; settings: Providencia rettgeri, IFO3850
# Source text: as §1
# [8] = test system: Pseudomonas aeruginosa NCTC 10490 (MS-1); test: MIC by agar dilution method; assay type: cell-based; settings: NCTC10490
# Source text: as §1
# [9] = test system: Enterobacter aerogenes ATCC 13048 (MS-1); test: MIC by agar dilution method; assay type: cell-based; settings: Klebsiella aerogenes, ATCC13048
# Source text: as §1
# [10] = test system: Escherichia coli NIHJ-JC-2 (MS-1); test: MIC by agar dilution method; assay type: cell-based; settings: NIHJJC2, E. coli NIHJ-JC-2 (MS-1)
# Source text: as §1
# [11] = test system: Serratia marcescens IAM 1184 (MS-1); test: MIC by agar dilution method; assay type: cell-based; settings: IAM1184
# Source text: as §1
# [12] = test system: Proteus vulgaris OX-19 (MS-1); test: MIC by agar dilution method; assay type: cell-based
# Source text: as §1
# [13] = test system: Micrococcus luteus ATCC 9341 (MS-1); test: MIC by agar dilution method; assay type: cell-based; settings: ATCC9341
# Source text: as §1
# [14] = test system: Staphylococcus aureus MS 353 (MS-1); test: MIC by agar dilution method; assay type: cell-based
# Source text: as §1
# [15] = test system: Salmonella schottmuelleri 8006 (MS-1); test: MIC by agar dilution method; assay type: cell-based
# Source text: as §1
# [16] = test system: Bacillus subtilis ATCC 6633 (MS-1); test: MIC by agar dilution method; assay type: cell-based; settings: ATCC6633
# Source text: as §1
# [17] = test system: Proteus morganii IFO 3848 (MS-1); test: MIC by agar dilution method; assay type: cell-based; settings: Morganella morganii, IFO3848
# Source text: as §1
# [18] = test system: Salmonella enteritidis G 14 (MS-1); test: MIC by agar dilution method; assay type: cell-based; settings: Salmonella enterica
# Source text: as §1
# [19] = test system: Klebsiella pneumoniae PCI-602 (MS-1); test: MIC by agar dilution method; assay type: cell-based
# Source text: as §1
# [20] = test system: Staphylococcus aureus FDA 209PJC-1 (MS-1); test: MIC by agar dilution method; assay type: cell-based
# Source text: as §1
# [21] = test system: Escherichia coli K12 C600 (MS-1); test: MIC by agar dilution method; assay type: cell-based; settings: E. coli K12 C600 (MS-1)
# Source text: as §1
# [22] = test system: Salmonella typhimurium IID971 (MS-1); test: MIC by agar dilution method; assay type: cell-based; settings: Salmonella enterica
# Source text: as §1
# [23] = test system: Bacillus cereus IAM 1729; test: MIC by agar dilution method; assay type: cell-based; settings: IAM1729
# Source text: as §1
# [24] = test system: Pseudomonas aeruginosa PAO 1 (MS-1); test: MIC by agar dilution method; assay type: cell-based
# Source text: as §1
# [25] = test system: Staphylococcus aureus Terajima (MS-1); test: MIC by agar dilution method; assay type: cell-based
# Source text: as §1
# [26] = test system: Staphylococcus aureus MS 15009 (pI258) Mac^r; test: MIC by agar dilution method; assay type: cell-based
# Source text: as §1
# (§2) Note: "Mac^r " stands for a constitutive macrolide resistant
# [27] = test system: Staphylococcus aureus MS 12917 Mac^r; test: MIC by agar dilution method; assay type: cell-based
# Source text: as §1, §2
# [28] = Solubility; assay type: physicochemical
# [29] = agar dilution, Streptococcus pyogenes Cook (MS-1), read-out: MIC
# [30] = agar dilution, Mycoplasma pneumoniae, read-out: MIC
# [31] = agar dilution, Enterobacter cloacae 963 (MS-1), read-out: MIC
# [32] = agar dilution, Pseudomonas aeruginosa IFO 3445 (MS-1), read-out: MIC
# [33] = agar dilution, Proteus rettgeri IFO 3850 (MS-1), read-out: MIC
# [34] = agar dilution, Pseudomonas aeruginosa NCTC 10490 (MS-1), read-out: MIC
# [35] = agar dilution, Enterobacter aerogenes ATCC 13048 (MS-1), read-out: MIC
# [36] = agar dilution, Serratia marcescens IAM 1184 (MS-1), read-out: MIC
# [37] = agar dilution, Proteus vulgaris OX-19 (MS-1), read-out: MIC
# [38] = agar dilution, Micrococcus luteus ATCC 9341 (MS-1), read-out: MIC
# [39] = agar dilution, S. aureus MS 353 (MS-1), read-out: MIC
# [40] = agar dilution, Bacillus subtilis ATCC 6633 (MS-1), read-out: MIC
# [41] = agar dilution, Proteus morganii IFO 3848 (MS-1), read-out: MIC
# [42] = agar dilution, Salmonella enteritidis G 14 (MS-1), read-out: MIC
# [43] = agar dilution, Klebsiella pneumoniae PCI-602 (MS-1), read-out: MIC
# [44] = agar dilution, S. aureus FDA 209PJC-1 (MS-1), read-out: MIC
# [45] = agar dilution, Salmonella typhimurium IID971 (MS-1), read-out: MIC
# [46] = agar dilution, Bacillus cereus IAM 1729, read-out: MIC
# [47] = agar dilution, Pseudomonas aeruginosa PAO 1 (MS-1), read-out: MIC
# [48] = agar dilution, S. aureus Terajima (MS-1), read-out: MIC
Compound,MIC [4],MIC [6],MIC [10],MIC [15],MIC [21],MIC [26],MIC [27],"MIC [1, 29]","MIC [3, 31]","MIC [5, 32]","MIC [7, 33]","MIC [8, 34]","MIC [9, 35]","MIC [11, 36]","MIC [12, 37]","MIC [13, 38]","MIC [14, 39]","MIC [16, 40]","MIC [17, 41]","MIC [18, 42]",further results
"CC[C@H]1OC(=O)[C@H](C)[C@@H](O[C@H]2C[C@@](C)(OC)[C@@H](O)[C@H](C)O2)[C@H](C)[C@@H](O[C@@H]2O[C@H](C)C[C@H](N(C)C)[C@H]2O)[C@](C)(O)C[C@@H](C)C(=O)[C@H](C)[C@@H](O)[C@]1(C)O [EM, erythromycin, reference compound]",50 µg/mL,25 µg/mL,100 µg/mL,50 µg/mL,50 µg/mL,> 100 µg/mL,> 100 µg/mL,–,–,–,–,–,–,–,–,–,–,–,–,–,MIC ([1]; Streptococcus pyogenes): 0.2 µg/mL; MIC ([2]; Mycoplasma): 0.1 µg/mL; MIC ([3]; Enterobacter cloacae): > 100 µg/mL; MIC ([5]; Pseudomonas aeruginosa): > 100 µg/mL; MIC [7]: > 100 µg/mL; MIC ([8]; Pseudomonas aeruginosa): > 100 µg/mL; MIC [9]: 100 µg/mL; MIC ([11]; Serratia marcescens): 100 µg/mL; MIC ([12]; Proteus vulgaris): > 100 µg/mL; MIC ([13]; Micrococcus luteus): < 0.1 µg/mL; MIC [14]: 0.2 µg/mL; MIC ([16]; Bacillus subtilis): < 0.1 µg/mL; MIC [17]: 25 µg/mL; MIC ([18]; ENTERITIDIS): 100 µg/mL; MIC ([19]; Klebsiella pneumoniae): 6.25 µg/mL; MIC [20]: 0.2 µg/mL; MIC [22]: 100 µg/mL; MIC ([23]; Bacillus cereus): 0.2 µg/mL; MIC ([24]; Pseudomonas aeruginosa): > 100 µg/mL; MIC [25]: 0.2 µg/mL
"CO[C@@H]1[C@@H](O[C@@H]2O[C@H](C)[C@@H](O[C@H]3C[C@@](C)(O)[C@@H](OC(=O)CC(C)C)[C@H](C)O3)[C@H](N(C)C)[C@H]2O)[C@@H](CC=O)C[C@@H](C)[C@@H](O)/C=C/C=C/C[C@@H](C)OC(=O)C[C@H]1OC(C)=O [JM, josamycin, reference compound]",> 100 µg/mL,100 µg/mL,> 100 µg/mL,> 100 µg/mL,> 100 µg/mL,> 100 µg/mL,> 100 µg/mL,0.2 µg/mL,> 100 µg/mL,> 100 µg/mL,> 100 µg/mL,> 100 µg/mL,> 100 µg/mL,> 100 µg/mL,> 100 µg/mL,< 0.1 µg/mL,0.78 µg/mL,0.39 µg/mL,> 100 µg/mL,> 100 µg/mL,"MIC [2, 30]: 0.2 µg/mL; MIC [19, 43]: 12.5 µg/mL; MIC [20, 44]: 0.2 µg/mL; MIC [22, 45]: > 100 µg/mL; MIC [23, 46]: 0.39 µg/mL; MIC [24, 47]: > 100 µg/mL; MIC [25, 48]: 0.78 µg/mL"
CCC1OC(=O)CC(O)C(C)C(OC2OC(C)C(OC3CC(C)(O)C(O)C(C)O3)C(N(C)C)C2O)C(CC=O)CC(C)C(=O)C=CC2(C)OC2C1C (stereo not drawn) [M 119-a],100 µg/mL,50 µg/mL,> 100 µg/mL,100 µg/mL,100 µg/mL,> 100 µg/mL,> 100 µg/mL,0.2 µg/mL,> 100 µg/mL,> 100 µg/mL,> 100 µg/mL,> 100 µg/mL,> 100 µg/mL,> 100 µg/mL,> 100 µg/mL,< 0.1 µg/mL,0.78 µg/mL,0.2 µg/mL,50 µg/mL,> 100 µg/mL,"MIC [2, 30]: 0.1 µg/mL; MIC [19, 43]: 12.5 µg/mL; MIC [20, 44]: 0.2 µg/mL; MIC [22, 45]: > 100 µg/mL; MIC [23, 46]: 0.39 µg/mL; MIC [24, 47]: > 100 µg/mL; MIC [25, 48]: 0.78 µg/mL; Solubility ([28]; in hexane, ether and water): insoluble; Solubility ([28]; in methanol and chloroform): Soluble"
CCC1OC(=O)CC(O)C(C)C(OC2OC(C)C(OC3CC(C)(O)C(O)C(C)O3)C(N(C)C)C2O)C(CC=O)CC(C)C(=O)C=CC2(C)OC2C1(C)O (stereo not drawn) [M 119-d],100 µg/mL,25 µg/mL,> 100 µg/mL,25 µg/mL,100 µg/mL,> 100 µg/mL,> 100 µg/mL,0.78 µg/mL,> 100 µg/mL,> 100 µg/mL,> 100 µg/mL,> 100 µg/mL,100 µg/mL,> 100 µg/mL,> 100 µg/mL,0.2 µg/mL,3.13 µg/mL,0.78 µg/mL,50 µg/mL,> 100 µg/mL,"MIC [19, 43]: 12.5 µg/mL; MIC [20, 44]: 0.78 µg/mL; MIC [22, 45]: > 100 µg/mL; MIC [23, 46]: 1.56 µg/mL; MIC [24, 47]: > 100 µg/mL; MIC [25, 48]: 3.13 µg/mL; Solubility ([28]; in hexane, ether and water): insoluble; Solubility ([28]; in methanol and chloroform): Soluble"
